Laboratory results reported in the CheMixHub viscosity set.
± gives the uncertainty stated by the source.

Experiment: xn = mol fraction of the nth substance listed

CCCCCCCC + C1CCCCC1
Conditions	viscosity [mPa·s]
298.15 K, 100 kPa, x2 = 0.2	0.5398 ± 0.022
298.15 K, 100 kPa, x2 = 0.4	0.5777 ± 0.023
298.15 K, 100 kPa, x2 = 0.6	0.6273 ± 0.025
298.15 K, 100 kPa, x2 = 0.8	0.7162 ± 0.029
298.15 K, 101.33 kPa, x2 = 0.0972	0.516 ± 0.004
298.15 K, 101.33 kPa, x2 = 0.1084	0.5318 ± 0.0049
298.15 K, 101.33 kPa, x2 = 0.2042	0.53 ± 0.004
298.15 K, 101.33 kPa, x2 = 0.2223	0.549 ± 0.005
298.15 K, 101.33 kPa, x2 = 0.3014	0.548 ± 0.004
298.15 K, 101.33 kPa, x2 = 0.3199	0.569 ± 0.0052
298.15 K, 101.33 kPa, x2 = 0.4044	0.568 ± 0.004
298.15 K, 101.33 kPa, x2 = 0.412	0.5851 ± 0.0053
298.15 K, 101.33 kPa, x2 = 0.5009	0.607 ± 0.0055
298.15 K, 101.33 kPa, x2 = 0.5017	0.591 ± 0.004
298.15 K, 101.33 kPa, x2 = 0.5763	0.628 ± 0.0056
298.15 K, 101.33 kPa, x2 = 0.6029	0.62 ± 0.005
298.15 K, 101.33 kPa, x2 = 0.6597	0.6568 ± 0.0058
298.15 K, 101.33 kPa, x2 = 0.7041	0.661 ± 0.005
298.15 K, 101.33 kPa, x2 = 0.7236	0.6788 ± 0.006
298.15 K, 101.33 kPa, x2 = 0.7926	0.7148 ± 0.0062
298.15 K, 101.33 kPa, x2 = 0.8014	0.705 ± 0.005
298.15 K, 101.33 kPa, x2 = 0.8586	0.8162 ± 0.007
298.15 K, 101.33 kPa, x2 = 0.8971	0.774 ± 0.005
298.15 K, 101.33 kPa, x2 = 0.9173	0.8737 ± 0.0074
298.15 K, 101.33 kPa, x2 = 0.9767	0.8737 ± 0.0074
303.15 K, 101 kPa, x2 = 0.1031	0.4956 ± 0.0038
303.15 K, 101 kPa, x2 = 0.1978	0.51 ± 0.0038
303.15 K, 101 kPa, x2 = 0.2979	0.5238 ± 0.0039
303.15 K, 101 kPa, x2 = 0.4018	0.5434 ± 0.004
303.15 K, 101 kPa, x2 = 0.4842	0.5614 ± 0.004
303.15 K, 101 kPa, x2 = 0.7004	0.6348 ± 0.0044
303.15 K, 101 kPa, x2 = 0.8984	0.7473 ± 0.0049
303.15 K, 101.33 kPa, x2 = 0.0972	0.487 ± 0.004
303.15 K, 101.33 kPa, x2 = 0.2042	0.498 ± 0.004
303.15 K, 101.33 kPa, x2 = 0.3014	0.515 ± 0.004
303.15 K, 101.33 kPa, x2 = 0.4044	0.533 ± 0.004
303.15 K, 101.33 kPa, x2 = 0.5017	0.554 ± 0.004
303.15 K, 101.33 kPa, x2 = 0.6029	0.581 ± 0.004
303.15 K, 101.33 kPa, x2 = 0.7041	0.614 ± 0.005
303.15 K, 101.33 kPa, x2 = 0.8014	0.656 ± 0.005
303.15 K, 101.33 kPa, x2 = 0.8971	0.717 ± 0.005
308.15 K, 101.33 kPa, x2 = 0.0972	0.459 ± 0.004
308.15 K, 101.33 kPa, x2 = 0.2042	0.469 ± 0.004
308.15 K, 101.33 kPa, x2 = 0.3014	0.483 ± 0.004
308.15 K, 101.33 kPa, x2 = 0.4044	0.501 ± 0.004
308.15 K, 101.33 kPa, x2 = 0.5017	0.518 ± 0.004
308.15 K, 101.33 kPa, x2 = 0.6029	0.543 ± 0.004
308.15 K, 101.33 kPa, x2 = 0.7041	0.573 ± 0.004
308.15 K, 101.33 kPa, x2 = 0.8014	0.608 ± 0.004
308.15 K, 101.33 kPa, x2 = 0.8971	0.664 ± 0.005
323.15 K, 100 kPa, x2 = 0.2	0.4103 ± 0.017
323.15 K, 100 kPa, x2 = 0.4	0.4326 ± 0.018
323.15 K, 100 kPa, x2 = 0.6	0.4655 ± 0.019
323.15 K, 100 kPa, x2 = 0.8	0.5138 ± 0.021

COCC(C)O (stereo unspecified) + O
viscosity [mPa·s], 101.33 kPa
Conditions	298.15 K	308.15 K	318.15 K
x1 = 0.0222	1.29 ± 0.037	1 ± 0.029	0.8257 ± 0.024
x1 = 0.0396	1.651 ± 0.045	1.236 ± 0.035	0.98 ± 0.027
x1 = 0.1131	3.035 ± 0.072	2.119 ± 0.052	1.579 ± 0.039
x1 = 0.1959	3.731 ± 0.086	2.615 ± 0.063	1.925 ± 0.047
x1 = 0.301	3.864 ± 0.089	2.73 ± 0.065	2.015 ± 0.048
x1 = 0.3583	3.811 ± 0.088	2.663 ± 0.064	1.978 ± 0.048
x1 = 0.4651	3.515 ± 0.081	2.438 ± 0.058	1.841 ± 0.044
x1 = 0.5264	3.124 ± 0.073	2.3 ± 0.055	1.744 ± 0.042
x1 = 0.7332	2.414 ± 0.056	1.823 ± 0.044	1.42 ± 0.034
x1 = 0.8372	2.094 ± 0.049	1.61 ± 0.039	1.277 ± 0.031
x1 = 0.9035	1.929 ± 0.045	1.49 ± 0.036	1.189 ± 0.029

CCCCCCCCCCCCCC + COC(=O)c1ccccc1
101 kPa
Conditions	viscosity [mPa·s]
298.15 K, x1 = 0.0359	1.787 ± 0.056
298.15 K, x1 = 0.0603	1.763 ± 0.055
298.15 K, x1 = 0.0869	1.742 ± 0.054
298.15 K, x1 = 0.114	1.723 ± 0.054
298.15 K, x1 = 0.1429	1.706 ± 0.053
298.15 K, x1 = 0.1751	1.695 ± 0.053
298.15 K, x1 = 0.2075	1.686 ± 0.053
298.15 K, x1 = 0.2786	1.675 ± 0.052
298.15 K, x1 = 0.3166	1.672 ± 0.052
298.15 K, x1 = 0.3592	1.673 ± 0.053
298.15 K, x1 = 0.4082	1.68 ± 0.053
298.15 K, x1 = 0.4539	1.688 ± 0.053
298.15 K, x1 = 0.5114	1.7 ± 0.054
298.15 K, x1 = 0.5687	1.718 ± 0.054
298.15 K, x1 = 0.6228	1.743 ± 0.055
298.15 K, x1 = 0.6938	1.782 ± 0.057
298.15 K, x1 = 0.7735	1.842 ± 0.059
298.15 K, x1 = 0.8501	1.905 ± 0.062
308.15 K, x1 = 0.0334	1.486 ± 0.046
308.15 K, x1 = 0.0663	1.471 ± 0.046
308.15 K, x1 = 0.0869	1.464 ± 0.046
308.15 K, x1 = 0.1156	1.452 ± 0.045
308.15 K, x1 = 0.1423	1.444 ± 0.045
308.15 K, x1 = 0.1737	1.436 ± 0.045
308.15 K, x1 = 0.2082	1.428 ± 0.045
308.15 K, x1 = 0.2405	1.422 ± 0.045
308.15 K, x1 = 0.2806	1.418 ± 0.044
308.15 K, x1 = 0.3218	1.415 ± 0.044
308.15 K, x1 = 0.3558	1.415 ± 0.044
308.15 K, x1 = 0.4082	1.42 ± 0.045
308.15 K, x1 = 0.4482	1.426 ± 0.045
308.15 K, x1 = 0.5073	1.438 ± 0.046
308.15 K, x1 = 0.5627	1.455 ± 0.046
308.15 K, x1 = 0.62	1.478 ± 0.047
308.15 K, x1 = 0.6846	1.508 ± 0.048
308.15 K, x1 = 0.7661	1.553 ± 0.05
308.15 K, x1 = 0.8624	1.613 ± 0.052
318.15 K, x1 = 0.0194	1.263 ± 0.039
318.15 K, x1 = 0.0462	1.25 ± 0.039
318.15 K, x1 = 0.071	1.242 ± 0.039
318.15 K, x1 = 0.1011	1.231 ± 0.038
318.15 K, x1 = 0.1287	1.223 ± 0.038
318.15 K, x1 = 0.1619	1.213 ± 0.038
318.15 K, x1 = 0.193	1.205 ± 0.038
318.15 K, x1 = 0.2311	1.198 ± 0.038
318.15 K, x1 = 0.267	1.193 ± 0.037
318.15 K, x1 = 0.3111	1.189 ± 0.037
318.15 K, x1 = 0.3471	1.186 ± 0.037
318.15 K, x1 = 0.3979	1.187 ± 0.037
318.15 K, x1 = 0.4448	1.189 ± 0.038
318.15 K, x1 = 0.5017	1.196 ± 0.038
318.15 K, x1 = 0.5526	1.206 ± 0.038
318.15 K, x1 = 0.6171	1.222 ± 0.039
318.15 K, x1 = 0.6828	1.244 ± 0.04
318.15 K, x1 = 0.7602	1.276 ± 0.041
318.15 K, x1 = 0.8353	1.314 ± 0.042

O=[N+]([O-])c1ccccc1 + CCC(C)=O
303.15 K, 101 kPa
Conditions	viscosity [mPa·s]
x2 = 0.1487	1.32 ± 0.0041
x2 = 0.3244	1.039 ± 0.0041
x2 = 0.4126	0.925 ± 0.004
x2 = 0.4992	0.82 ± 0.004
x2 = 0.7145	0.607 ± 0.004
x2 = 0.78	0.55 ± 0.004

O=[N+]([O-])c1ccccc1 + CC(=O)O
viscosity [mPa·s], 101 kPa
Conditions	x2 = 0.165	x2 = 0.3078	x2 = 0.4326	x2 = 0.5425	x2 = 0.6402	x2 = 0.7274	x2 = 0.8059	x2 = 0.8768	x2 = 0.9412
298.15 K	1.731 ± 0.013	1.662 ± 0.013	1.602 ± 0.012	1.546 ± 0.012	1.488 ± 0.011	1.428 ± 0.011	1.365 ± 0.011	1.3 ± 0.01	1.232 ± 0.0096
308.15 K	1.48 ± 0.011	1.453 ± 0.011	1.407 ± 0.011	1.35 ± 0.01	1.288 ± 0.01	1.224 ± 0.0096	1.159 ± 0.0091	1.095 ± 0.0086	1.033 ± 0.0082
318.15 K	1.314 ± 0.01	1.365 ± 0.011	1.353 ± 0.01	1.306 ± 0.01	1.24 ± 0.0097	1.164 ± 0.0091	1.085 ± 0.0086	1.006 ± 0.008	0.9289 ± 0.0074
